In BindingDB's records for doi:10.1021/jm060173k (Schering-Plough Research Institute, 2007):

These compounds were tested against Genome polyprotein (Hepatitis C virus genotype 1a (isolate H77), UniProt P27958) (assay: Continuous Spectrophotometric Assay). Details: not given.
Protocol: Proteolytic cleavage of the ester linkage between the Nva (L-norvaline) and the chromophore (PAP) was monitored for change in absorbance at 370 nm. Initial velocities were determined using linear regression and kinetic constants were obtained by fitting the data to the Michaelis-Menten equation.

Chain of Genome polyprotein (P27958 1027-1657 limits assumed): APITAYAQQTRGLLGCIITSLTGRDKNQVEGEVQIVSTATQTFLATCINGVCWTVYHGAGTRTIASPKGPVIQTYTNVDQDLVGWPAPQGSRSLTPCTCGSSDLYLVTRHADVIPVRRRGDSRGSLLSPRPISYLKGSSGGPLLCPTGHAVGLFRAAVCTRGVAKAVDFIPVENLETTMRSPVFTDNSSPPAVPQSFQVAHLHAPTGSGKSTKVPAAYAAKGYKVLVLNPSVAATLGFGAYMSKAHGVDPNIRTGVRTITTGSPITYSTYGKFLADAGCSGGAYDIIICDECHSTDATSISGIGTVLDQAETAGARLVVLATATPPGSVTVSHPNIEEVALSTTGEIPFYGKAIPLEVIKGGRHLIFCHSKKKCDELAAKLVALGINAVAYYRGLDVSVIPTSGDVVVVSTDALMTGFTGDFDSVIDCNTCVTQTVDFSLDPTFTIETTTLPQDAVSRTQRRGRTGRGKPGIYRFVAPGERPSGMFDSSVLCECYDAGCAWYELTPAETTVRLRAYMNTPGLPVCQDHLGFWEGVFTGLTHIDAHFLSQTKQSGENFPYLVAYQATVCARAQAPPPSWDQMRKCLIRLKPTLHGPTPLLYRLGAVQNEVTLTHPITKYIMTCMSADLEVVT

| Ki [nM] | SMILES |
| --- | --- |
| 100 | CC(C)C(NC(=O)NC(C)(C)C)C(=O)N1C[C@H]2[C@@H](C1C(=O)NC(CC1CC1)C(=O)C(N)=O)C2(C)C (stereo partly drawn) [3-{[(1R,5S)-3-{2-[(tert-butylcarbamoyl)amino]-3-methylbutanoyl}-6,6-dimethyl-3-azabicyclo[3.1.0]hexan-2-yl]formamido}-4-cyclopropyl-2-oxobutanamide] |
| 38 | CC(=O)NC(C(=O)NC(C(=O)N1C[C@H]2[C@@H](C1C(=O)NC(CC1CCC1)C(=O)C(N)=O)C2(C)C)C(C)(C)C)C(C)C (stereo partly drawn) [N-{1-[(1R,5S)-2-[(1-carbamoyl-3-cyclobutyl-1-oxopropan-2-yl)carbamoyl]-6,6-dimethyl-3-azabicyclo[3.1.0]hexan-3-yl]-3,3-dimethyl-1-oxobutan-2-yl}-2-acetamido-3-methylbutanamide] |
| 68 | CC(=O)NC(C(=O)NC(C(=O)N1C[C@H]2[C@@H](C1C(=O)NC(CC1CC1)C(=O)C(N)=O)C2(C)C)C1CCCCC1)C(C)C (stereo partly drawn) [N-{2-[(1R,5S)-2-[(1-carbamoyl-3-cyclopropyl-1-oxopropan-2-yl)carbamoyl]-6,6-dimethyl-3-azabicyclo[3.1.0]hexan-3-yl]-1-cyclohexyl-2-oxoethyl}-2-acetamido-3-methylbutanamide] |
| 230 | CCOC(=O)NC(C(=O)N1C[C@H]2[C@@H](C1C(=O)NC(CC1CC1)C(=O)C(N)=O)C2(C)C)C1CCCCC1 (stereo partly drawn) [ethyl N-{2-[(1R,5S)-2-[(1-carbamoyl-3-cyclopropyl-1-oxopropan-2-yl)carbamoyl]-6,6-dimethyl-3-azabicyclo[3.1.0]hexan-3-yl]-1-cyclohexyl-2-oxoethyl}carbamate] |
| 800 | COC(=O)NC(C(=O)N1C[C@H]2[C@@H](C1C(=O)NC(CC1CC1)C(=O)C(N)=O)C2(C)C)C1CCCCC1 (stereo partly drawn) [methyl N-{2-[(1R,5S)-2-[(1-carbamoyl-3-cyclopropyl-1-oxopropan-2-yl)carbamoyl]-6,6-dimethyl-3-azabicyclo[3.1.0]hexan-3-yl]-1-cyclohexyl-2-oxoethyl}carbamate] |
| 60 | CC(C)OC(=O)NC(C(=O)N1C[C@H]2[C@@H](C1C(=O)NC(CC1CC1)C(=O)C(N)=O)C2(C)C)C1CCCCC1 (stereo partly drawn) [propan-2-yl N-{2-[(1R,5S)-2-[(1-carbamoyl-3-cyclopropyl-1-oxopropan-2-yl)carbamoyl]-6,6-dimethyl-3-azabicyclo[3.1.0]hexan-3-yl]-1-cyclohexyl-2-oxoethyl}carbamate] |

More lines, now with the values behind:

| SMILES | Ki [nM] |
| --- | --- |
| CC(C)CC(NC(=O)C(NC(=O)NC(C)(C)C)C(C)(C)C)C(=O)NC(CC1CCC1)C(=O)C(N)=O (stereo not given) [2-{2-[(tert-butylcarbamoyl)amino]-3,3-dimethylbutanamido}-N-(1-carbamoyl-3-cyclobutyl-1-oxopropan-2-yl)-4-methylpentanamide] | 1000 |
| CC(C)(C)NC(=O)NC(C(=O)N1C[C@@H]2OC(C)(C)[C@@H]2C1C(=O)NC(CC1CCC1)C(=O)C(N)=O)C(C)(C)C (stereo partly drawn) [3-{[(1R,5R)-3-{2-[(tert-butylcarbamoyl)amino]-3,3-dimethylbutanoyl}-7,7-dimethyl-6-oxa-3-azabicyclo[3.2.0]heptan-2-yl]formamido}-4-cyclobutyl-2-oxobutanamide] | 960 |
| CC(C)(C)NC(=O)NC(C(=O)N1C[C@H]2[C@@H](C1C(=O)NC(CC1CC1(F)F)C(=O)C(N)=O)C2(C)C)C(C)(C)C (stereo partly drawn) [3-{[(1R,5S)-3-{2-[(tert-butylcarbamoyl)amino]-3,3-dimethylbutanoyl}-6,6-dimethyl-3-azabicyclo[3.1.0]hexan-2-yl]formamido}-4-(2,2-difluorocyclopropyl)-2-oxobutanamide] | 50 |
| CC(C)(C)NC(=O)NC(C(=O)N1C[C@H]2[C@@H](C1C(=O)NC(CC1CC(F)(F)C1)C(=O)C(N)=O)C2(C)C)C(C)(C)C (stereo partly drawn) [3-{[(1R,5S)-3-{2-[(tert-butylcarbamoyl)amino]-3,3-dimethylbutanoyl}-6,6-dimethyl-3-azabicyclo[3.1.0]hexan-2-yl]formamido}-4-(3,3-difluorocyclobutyl)-2-oxobutanamide] | 115 |
| CC(C)(C)NC(=O)NC(C(=O)N1C[C@H]2[C@@H](C1C(=O)NC(CC1CCC1)C(=O)C(N)=O)C2(Cl)Cl)C(C)(C)C (stereo partly drawn) [3-{[(1S,5R)-3-{2-[(tert-butylcarbamoyl)amino]-3,3-dimethylbutanoyl}-6,6-dichloro-3-azabicyclo[3.1.0]hexan-2-yl]formamido}-4-cyclobutyl-2-oxobutanamide] | 19 |
| CC(C)(C)NC(=O)NC(C(=O)N1C[C@H]2[C@@H](C1C(=O)NC(CC1CCC1)C(=O)C(N)=O)C2(F)F)C(C)(C)C (stereo partly drawn) [3-{[(1S,5R)-3-{2-[(tert-butylcarbamoyl)amino]-3,3-dimethylbutanoyl}-6,6-difluoro-3-azabicyclo[3.1.0]hexan-2-yl]formamido}-4-cyclobutyl-2-oxobutanamide] | 140 |
| CC(C)(C)NC(=O)NC(C(=O)N1C[C@@H]2OC(C)(C)C[C@@H]2C1C(=O)NC(CC1CCC1)C(=O)C(N)=O)C(C)(C)C (stereo partly drawn) [3-{[(3aR,6aR)-5-{2-[(tert-butylcarbamoyl)amino]-3,3-dimethylbutanoyl}-2,2-dimethyl-hexahydro-2H-furo[2,3-c]pyrrol-4-yl]formamido}-4-cyclobutyl-2-oxobutanamide] | 500 |

Same assay, conditions: pH 6.5; 30 °C

| Ki [nM] | SMILES |
| --- | --- |
| 54 | CCCC(NC(=O)C1[C@@H]2[C@H](CN1C(=O)C(NC(=O)NC(C)(C)C)C1CCCCC1)C2(C)C)C(=O)C(N)=O (stereo partly drawn) [3-{[(1R,5S)-3-{2-[(tert-butylcarbamoyl)amino]-2-cyclohexylacetyl}-6,6-dimethyl-3-azabicyclo[3.1.0]hexan-2-yl]formamido}-2-oxohexanamide] |
| 100 | CC(C)(C)NC(=O)NC(C(=O)N1C[C@H]2[C@@H](C1C(=O)NC(C(=O)C(N)=O)C1CCC1)C2(C)C)C(C)(C)C (stereo partly drawn) [3-{[(1R,5S)-3-{2-[(tert-butylcarbamoyl)amino]-3,3-dimethylbutanoyl}-6,6-dimethyl-3-azabicyclo[3.1.0]hexan-2-yl]formamido}-3-cyclobutyl-2-oxopropanamide] |
| 360 | CCCCC(NC(=O)C1[C@@H]2[C@H](CN1C(=O)C(NC(=O)OC(C)(C)C)C(C)(C)C)C2(C)C)C(=O)C(N)=O (stereo partly drawn) [tert-butyl N-{1-[(1R,5S)-2-[(1-carbamoyl-1-oxohexan-2-yl)carbamoyl]-6,6-dimethyl-3-azabicyclo[3.1.0]hexan-3-yl]-3,3-dimethyl-1-oxobutan-2-yl}carbamate] |
| 220 | CCCC(NC(=O)C1[C@@H]2[C@H](CN1C(=O)C(NC(=O)OC(C)(C)C)C(C)(C)C)C2(C)C)C(=O)C(N)=O (stereo partly drawn) [tert-butyl N-{1-[(1R,5S)-2-[(1-carbamoyl-1-oxopentan-2-yl)carbamoyl]-6,6-dimethyl-3-azabicyclo[3.1.0]hexan-3-yl]-3,3-dimethyl-1-oxobutan-2-yl}carbamate] |
| > 69000 | CC(C)(C)OC(=O)NC(C(=O)N1C[C@H]2[C@@H](C1C(=O)NC(C(=O)C(N)=O)C(C)(C)C)C2(C)C)C(C)(C)C (stereo partly drawn) [tert-butyl N-{1-[(1R,5S)-2-[(1-carbamoyl-3,3-dimethyl-1-oxobutan-2-yl)carbamoyl]-6,6-dimethyl-3-azabicyclo[3.1.0]hexan-3-yl]-3,3-dimethyl-1-oxobutan-2-yl}carbamate] |
| > 3300 | CC(C)(C)CC(NC(=O)C1[C@@H]2[C@H](CN1C(=O)C(NC(=O)OC(C)(C)C)C(C)(C)C)C2(C)C)C(=O)C(N)=O (stereo partly drawn) [tert-butyl N-{1-[(1R,5S)-2-[(1-carbamoyl-4,4-dimethyl-1-oxopentan-2-yl)carbamoyl]-6,6-dimethyl-3-azabicyclo[3.1.0]hexan-3-yl]-3,3-dimethyl-1-oxobutan-2-yl}carbamate] |
| 480 | CC(C)CC(NC(=O)C1[C@@H]2[C@H](CN1C(=O)C(NC(=O)OC(C)(C)C)C(C)(C)C)C2(C)C)C(=O)C(N)=O (stereo partly drawn) [tert-butyl N-{1-[(1R,5S)-2-[(1-carbamoyl-4-methyl-1-oxopentan-2-yl)carbamoyl]-6,6-dimethyl-3-azabicyclo[3.1.0]hexan-3-yl]-3,3-dimethyl-1-oxobutan-2-yl}carbamate] |
